Experimental data reported in patent US9096835B2, “DNA polymerase” (Medical Research Council, priority 2003, dated 2015).

B1: M1: Taq mutant G84A, D144G, K314R, E520G, F598L, A608V, E742G; SEQ ID NO: 1 (protein)
chain: MRGMLPLFEPKGRVLLVDGHHLAYRTFHALKGLTTSRGEPVQAVYGFAKSLLKALKEDGDAVIVVFDAKAPSFRHEAYGGYKAARAPTPEDFPRQLALIKELVDLLGLARLEVPGYEADDVLASLAKKAEKEGYEVRILTADKGLYQLLSDRIHVLHPEGYLITPAWLWEKYGLRPDQWADYRALTGDESDNLPGVKGIGEKTARKLLEEWGSLEALLKNLDRLKPAIREKILAHMDDLKLSWDLAKVRTDLPLEVDFAKRREPDRERLRAFLERLEFGSLLHEFGLLESPKALEEAPWPPPEGAFVGFVLSRREPMWADLLALAAAAGGRVHRAPEPYKALRDLKEARGLLAKDLSVLALREGLGLPPGDDPMLLAYLLDPSNTTPEGVARRYGGEWTEEAGERAALSERLFANLWGRLEGEERLLWLYREVERPLSAVLAHMEATGVRLDVAYLRALSLEVAEEIARLEAEVFRLAGHPFNLNSRDQLERVLFDELGLPAIGKTEKTGKRSTSAAVLGALREAHPIVEKILQYRELTKLKSTYIDPLPDLIHPRTGRLHTRFNQTATATGRLSSSDPNLQNIPVRTPLGQRIRRAFIAEEGWLLVVLDYSQIELRVLAHLSGDENLIRVFQEGRDIHTETASWMFGVPREAVDPLMRRAAKTINFGVLYGMSAHRLSQELAIPYEEAQAFIERYFQSFPKVRAWIEKTLEEGRRRGYVETLFGRRRYVPDLEARVKSVRGAAERMAFNMPVQGTAADLMKLAMVKLFPRLEEMGARMLLQVHDELVLEAPKERAEAVARLAKEVMEGVYPLAVPLEVEVGIGEDWLSAKE
modifications: Mutant Thermus aquaticus DNA polymerase

Experiments:
Assay type in all cases: biochemical
[1] = Incorporation and extension of 5-nitroindole-5′-triphosphate; details: 50° C., identical conditions as 4D11 and 5D4; data not shown
Method: (§1) 50 pmol of ^32P-labelled primer and 100 pmol of template in a volume of 44 μl were annealed in 1× Taq buffer. 4D11 or 5D4 polymerase as cell lysate (6 μl) was added and reactions were incubated at 50° C. for 15 minutes followed by addition of d5NITP (1 μl in total volume of 50 µL final dNTP concentration 40 μM). 8 μl samples were taken at various time points and added to 8 μl stop solution (7M urea, 100 mM EDTA containing xylene cyanol F). At the end of the time course the 4 native dNTPs were added (final concentration each dNTP 40 μM) and reactions incubated at 50° C. for a further 30 minutes.

[2] = PCR with dATP replaced by FITC-12-dATP; details: 50 cycle PCR, dATP completely replaced
Method: (§2) A PCR assay was used to screen and rank clones. Briefly, clones were normalized for activity in PCR with matched primers 3, 4 and activity with mismatched primers 1 and 2 (1 μM each) determined at minimal cycle number (15-25 cycles). Extension capability for different mismatches was determined by the same assay using mismatch primers 2 (C•C mismatch), 5 (A•A mismatch), 6 (G•G mismatch), 7 (G•A mismatch) with matched primer 3 or primer 1 (A•G mismatch) with matched primer 4. Incorporation of unnatural substrates in 50 cycle PCR was carried out using standard conditions and 50 μM […] dNTPs (Promega) or 50 μM FITC-12-dATP (Perkin-Elmer), Rhodamine-5-dUTP (Perkin-Elmer) or Biotin-16-dUTP (Roche) with equivalent amounts of the other 3 dNTPs (all 50 μM). Long PCR was carried out using a two-step cycling protocol as described (22) 94° C. for 2 minutes, followed by 20 cycles of (94° C. 15 sec, 68° C. 30 min) using 5 ng of phage λ DNA (New England Biolabs) template and either primers 9, 10, 11 with primer 12 or primer 13 with primers 10, 14.

[3] = tested on: template containing 5-Nitroindole; experiment: Primer extension opposite 5-nitroindole; details: 50° C., cell lysate, identical conditions as 4D11 and 5D4; data not shown
Method: as §1, with “one dNTP” for “d5NITP”, “μl,” for “µL”, “remaining 3” for “4 native”, “minutes. Reaction samples were electrophoretically separated using 20% polyacrylamide gels at 25 W for 4 hours. The resultant gels were dried and scanned using a phosphorimager (Molecular Dynamics). Data was processed using the program ImageQuant (Molecular Dynamics).” for “minutes.”

phage λ DNA template = experiment: Long PCR; details: standard PCR conditions, no auxiliary polymerases or processivity factors
Method: as §2

[4] = Catalytic efficiency kcat/Km

Molecule	incorporation and extension of d5NITP [1]	PCR amplification with FITC-12-dATP [2]	extension opposite 5-nitroindole [3]	size of targets amplified in long PCR (phage λ DNA template)	size of targets amplified in long PCR (phage λ DNA template; listed as WtTaq)	kcat/Km relative to Taq wild type [4]	size of amplification product fully labelled with FITC-12-dATP [2]
wtTaq: Thermus aquaticus (Taq) wild type DNA polymerase [reference compound]	almost undetectable extension reactions	unable to generate any amplification products	almost undetectable extension reactions	≤ 9 kb	≤ 8.8 kb	–	–
B1	–	–	–	–	–	14%	0.4 kb
